# According to patent US12257247B2 (Monte Rosa Therapeutics AG, priority 2023, dated 2025):
# Where two headings read alike, the source gives them in different places.
# Biological target: T1, VAV1 (Homo sapiens, UniProt P15498+Q96SW2)
# T1 construct: A heterozygous VAV1 C-terminal HiBiT knock-in pool was generated at Monte Rosa Therapeutics from a clonal Jurkat cell; endogenous in cells; host or cells: Jurkat clone stably expressing LgBiT, homozygous GSPT1-G575N; heterozygous VAV1-HiBiT knock-in pool
# Experiment: VAV1 degradation activity, VAV1-HiBiT knock-in Jurkat luminescence assay (Example A, Table 1)
# Assay type: cell-based
# Settings: VAV1-HiBiT knock-in Jurkat cells, luminescence read at 6 and 24 hours; for Dmax: Jurkat
# Description: Cells were plated at 10,000 cells per well using Multiflo (BioTek) or Multi Drop Combi (Thermo Fisher) in 384-well white solid bottom plates (Corning, 3570BC) in 25 ul volume in RPMI 1640 media (Thermo Fischer, 22400105) containing 10% FBS (Corning, 35-075-CV), 1% Penicillin/Streptomycin (ThermoFisher Scientific, 15140-122), and 1% Endurazine (Nano-Glo Endurazine Live Cell Substrate (Promega, N2571)). Cells were incubated for ˜16 hours at 37° C., 5% CO2. 25 nL of a compound at 10 μM were dosed into the plate using an Echo® 650 liquid handler (Labcyte). Cells were incubated at 37° C., 5% CO2 and signal was read at 6 and 24 hours after compound addition on a Pherastar FSX using “LUM plus” optic module.
# Analysis was performed in Scinamic (Scinamic, Cambridge, MA). Luminescence response (R) was calculated by the formula: response=100*(S−N)/(P−N) where S is the signal of the well, N and P the mean negative and positive control values respectively of the same plate. The luminescence response was then fitted in Scinamic using a 3-parameter agonist logistic fit (hillslope=1, EC50>0, top/bottom unconstrained).
# [1] = read-out: VAV1 DC50 (nM), class
Structure (SMILES),Dmax (read-out: VAV1 Dmax %) [%],"Dmax (read-out: VAV1 Dmax %, class) [%]",DC50 (read-out: VAV1 DC50) [nM],DC50 [1] [nM]
"O=C1CCC(c2cccc(-c3ccc(Cn4ccc(F)cc4=O)cc3)c2Cl)C(=O)N1 (centres unmarked) [Compound 170, 3-(2-chloro-4′-((4-fluoro-2-oxopyridin-1(2H)-yl)methyl)-[1,1′-biphenyl]-3-yl)piperidine-2,6-dione]",94.2,> 90,69.7,≤ 100
"O=C1CCC(c2cccc(-c3ccc(Cn4ccc(C(F)(F)F)cc4=O)cc3)c2Cl)C(=O)N1 (centres unmarked) [Compound 171, 3-(2-chloro-4′-((2-oxo-4-(trifluoromethyl)pyridin-1(2H)-yl)methyl)-[1,1′-biphenyl]-3-yl)piperidine-2,6-dione]",94.9,> 90,93.8,≤ 100
"C#Cc1ccc(C2CCC(=O)NC2=O)c(Cl)c1-c1ccc(OCc2ccn(C)n2)cc1 (centres unmarked) [Compound 172, 3-(2-chloro-6-ethynyl-4′-((1-methyl-1H-pyrazol-3-yl)methoxy)-[1,1′-biphenyl]-3-yl)piperidine-2,6-dione]",24.7,< 60,≥ 10000,> 1000
"CC(Oc1ccc(-c2cccc(C3CCC(=O)NC3=O)c2Cl)cc1)c1ccn(C)n1 (centres unmarked) [Compound 173, 3-(2-chloro-4′-(1-(1-methyl-1H-pyrazol-3-yl)ethoxy)-[1,1′-biphenyl]-3-yl)piperidine-2,6-dione]",88.1,60 to 90,40.2,≤ 100
"CC(c1ccc(-c2cccc(C3CCC(=O)NC3=O)c2Cl)cc1)n1ccccc1=O (centres unmarked) [Compound 174, 3-(2-chloro-4′-(1-(2-oxopyridin-1(2H)-yl)ethyl)-[1,1′-biphenyl]-3-yl)piperidine-2,6-dione]",92.2,> 90,27.4,≤ 100
"COc1ccn(Cc2ccc(-c3cccc(C4CCC(=O)NC4=O)c3Cl)cc2)c(=O)c1 (centres unmarked) [Compound 175, 3-[2-chloro-3-[4-[(4-methoxy-2-oxo-1-pyridyl)methyl]phenyl]phenyl]piperidine-2,6-dione]",87.1,60 to 90,31.6,≤ 100
"Cn1ccc(COc2ccc(-c3cccc(C4CCC(=O)NC4=O)c3Cl)c(Cl)c2)n1 (centres unmarked) [Compound 177, 3-(2,2′-dichloro-4′-((1-methyl-1H-pyrazol-3-yl)methoxy)-[1,1′-biphenyl]-3-yl)piperidine-2,6-dione]",29.2,< 60,≥ 10000,> 1000
"O=C1CCC(c2cccc(-c3ccc(CCCn4ccccc4=O)cc3)c2Cl)C(=O)N1 (centres unmarked) [Compound 178, 3-(2-chloro-4′-(3-(2-oxopyridin-1(2H)-yl)propyl)-[1,1′-biphenyl]-3-yl)piperidine-2,6-dione]",81.1,60 to 90,239,100 to 1000
Cn1ccc(COc2ccc(-c3c(C#N)ccc(C4CCC(=O)NC4=O)c3Cl)cc2)n1 (centres unmarked) [Compound 179],32.8,< 60,≥ 10000,> 1000
"O=C1CCC(c2cccc(-c3ccc(C(=O)N4CCCC4)cc3)c2Cl)C(=O)N1 (centres unmarked) [Compound 181, 3-(2-chloro-4′-(pyrrolidine-1-carbonyl)-[1,1′-biphenyl]-3-yl)piperidine-2,6-dione]",85.9,60 to 90,33.9,≤ 100
"Cn1cncc1COc1ccc(-c2cccc(C3CCC(=O)NC3=O)c2Cl)cc1 (centres unmarked) [Compound 186, 3-(2-chloro-4′-((1-methyl-1H-imidazol-5-yl)methoxy)-[1,1′-biphenyl]-3-yl)piperidine-2,6-dione]",95.3,> 90,13.6,≤ 100
"Cc1ccn(Cc2ccc(-c3cccc(C4CCC(=O)NC4=O)c3Cl)cc2)c(=O)c1 (centres unmarked) [Compound 189, 3-(2-chloro-4′-((4-methyl-2-oxopyridin-1(2H)-yl)methyl)-[1,1′-biphenyl]-3-yl)piperidine-2,6-dione]",91.4,> 90,33.7,≤ 100
"O=C1CCC(c2cccc(-c3cccc(COC4CCOC4)c3)c2Cl)C(=O)N1 (centres unmarked) [Compound 190, 3-(2-chloro-3′-(((tetrahydrofuran-3-yl)oxy)methyl)-[1,1′-biphenyl]-3-yl)piperidine-2,6-dione]",21.5,< 60,3330,> 1000
"Cn1ccc(CCc2ccc(-c3cccc(C4CCC(=O)NC4=O)c3Cl)cc2)n1 (centres unmarked) [Compound 194, 3-(2-chloro-4′-(2-(1-methyl-1H-pyrazol-3-yl)ethyl)-[1,1′-biphenyl]-3-yl)piperidine-2,6-dione]",94.1,> 90,18.4,≤ 100
"O=C1CCC(c2cccc(-c3ccc(N4CCC4)cc3)c2Cl)C(=O)N1 (centres unmarked) [Compound 195, 3-(4′-(azetidin-1-yl)-2-chloro-[1,1′-biphenyl]-3-yl)piperidine-2,6-dione]",79.4,60 to 90,552,100 to 1000
"CC(C)(c1ccc(-c2cccc(C3CCC(=O)NC3=O)c2Cl)cc1)N1CCCCC1=O (centres unmarked) [Compound 197, 3-(2-chloro-4′-(2-(2-oxopiperidin-1-yl)propan-2-yl)-[1,1′-biphenyl]-3-yl)piperidine-2,6-dione]",88.8,60 to 90,33,≤ 100

# Next, values leading:
Dmax (read-out: VAV1 Dmax %) [%],"Dmax (read-out: VAV1 Dmax %, class) [%]",DC50 (read-out: VAV1 DC50) [nM],DC50 [1] [nM],Structure (SMILES)
98,> 90,4.41,≤ 100,"Cn1ccc(Cc2ccc(-c3cccc(C4CCC(=O)NC4=O)c3Cl)cc2)n1 (centres unmarked) [Compound 176, 3-(2-chloro-4′-((1-methyl-1H-pyrazol-3-yl)methyl)-[1,1′-biphenyl]-3-yl)piperidine-2,6-dione]"
88.8,60 to 90,11.5,≤ 100,"Cn1ccc(CNc2ccc(-c3cccc(C4CCC(=O)NC4=O)c3Cl)cc2)n1 (centres unmarked) [Compound 180, 3-(2-chloro-4′-(((1-methyl-1H-pyrazol-3-yl)methyl)amino)-[1,1′-biphenyl]-3-yl)piperidine-2,6-dione]"
89.3,60 to 90,11.7,≤ 100,"O=C1CCC(c2cccc(-c3ccc(CCn4ccccc4=O)cc3)c2Cl)C(=O)N1 (centres unmarked) [Compound 182, 3-(2-chloro-4′-(2-(2-oxopyridin-1(2H)-yl)ethyl)-[1,1′-biphenyl]-3-yl)piperidine-2,6-dione]"
95.7,> 90,5.55,≤ 100,"Cn1cnc(COc2ccc(-c3cccc(C4CCC(=O)NC4=O)c3Cl)cc2)c1 (centres unmarked) [Compound 183, 3-(2-chloro-4′-((1-methyl-1H-imidazol-4-yl)methoxy)-[1,1′-biphenyl]-3-yl)piperidine-2,6-dione]"
92.1,> 90,11.6,≤ 100,"Cc1cccc(=O)n1Cc1ccc(-c2cccc(C3CCC(=O)NC3=O)c2Cl)cc1 (centres unmarked) [Compound 184, 3-(2-chloro-4′-((6-methyl-2-oxopyridin-1(2H)-yl)methyl)-[1,1′-biphenyl]-3-yl)piperidine-2,6-dione]"
97,> 90,7,≤ 100,"O=C1CCC(c2cccc(-c3ccc(-n4ccccc4=O)cc3)c2Cl)C(=O)N1 (centres unmarked) [Compound 185, 3-(2-chloro-4′-(2-oxopyridin-1(2H)-yl)-[1,1′-biphenyl]-3-yl)piperidine-2,6-dione]"
94.2,> 90,9.75,≤ 100,"Cc1cccn(Cc2ccc(-c3cccc(C4CCC(=O)NC4=O)c3Cl)cc2)c1=O (centres unmarked) [Compound 187, 3-(2-chloro-4′-((3-methyl-2-oxopyridin-1(2H)-yl)methyl)-[1,1′-biphenyl]-3-yl)piperidine-2,6-dione]"
95,> 90,7.16,≤ 100,"Cc1ccc(=O)n(Cc2ccc(-c3cccc(C4CCC(=O)NC4=O)c3Cl)cc2)c1 (centres unmarked) [Compound 188, 3-(2-chloro-4′-((5-methyl-2-oxopyridin-1(2H)-yl)methyl)-[1,1′-biphenyl]-3-yl)piperidine-2,6-dione]"
91.7,> 90,13.3,≤ 100,"Cn1cc(CNc2ccc(-c3cccc(C4CCC(=O)NC4=O)c3Cl)cc2)cn1 (centres unmarked) [Compound 193, 3-(2-chloro-4′-(((1-methyl-1H-pyrazol-4-yl)methyl)amino)-[1,1′-biphenyl]-3-yl)piperidine-2,6-dione]"
95.6,> 90,9.34,≤ 100,"Cn1ccc(NCc2ccc(-c3cccc(C4CCC(=O)NC4=O)c3Cl)cc2)n1 (centres unmarked) [Compound 196, 3-(2-chloro-4′-(((1-methyl-1H-pyrazol-3-yl)amino)methyl)-[1,1′-biphenyl]-3-yl)piperidine-2,6-dione]"
